# Test results from US9409905B2, “Antibacterial compounds and methods for use” (PTC THERAPEUTICS, INC., priority 2011, dated 2016).
# Experiments:
# [1] = system: Escherichia coli (E. coli) BAS849; assay: Antibacterial activity, microbroth dilution MIC (Table 1); type: cell-based; settings: microbroth dilution, super sensitive Gram-negative E. coli BAS849, read-out: MIC, BAS849
# Procedure, shortened: (§1)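 Broth microdilution; endpoint = no macroscopic growth; value = lowest inhibiting concn, μg/mL.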
# [2] = system: Staphylococcus aureus (S. aureus) 29213; assay: as above; type: cell-based; settings: microbroth dilution, Gram-positive S. aureus 29213, read-out: MIC, 29213
# Procedure, shortened: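 Each strain is exposed to test compound in a microbroth dilution series; visible growth is scored macroscopically, and the lowest growth-free concentration is recorded as MIC in μg/mL.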
# [3] = system: E. coli 25922; assay: as above; type: cell-based, Escherichia coli; settings: Escherichia coli; microbroth dilution; control Gram-negative E. coli 25922 strain; read-out: MIC, 25922
# Procedure, shortened: as §1
# [4] = system: E. coli LZ3111; assay: Antibacterial activity, MIC, quinolone resistant strain (Table 2); type: cell-based; settings: Escherichia coli, LZ3111, read-out: MIC LZ3111
# Procedure, shortened: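 Lowest concentration giving no macroscopically visible growth was taken as the MIC (μg/mL) after microbroth dilution testing.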
# [5] = system: E. coli ELZ4000; assay: Antibacterial activity, MIC, multi-drug resistant clinical isolate (Table 3); type: cell-based; settings: Escherichia coli, ELZ4000, read-out: MIC ELZ4000
# Procedure, shortened: (§2)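 Growth inhibition is measured by microbroth dilution, and the minimum inhibitory concentration in μg/mL corresponds to the lowest drug level that prevents visible bacterial growth.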
# [6] = system: E. coli ELZ4251; assay: as above; type: cell-based; settings: Escherichia coli
# Procedure, shortened: as §2
# [7] = system: Acinetobacter baumannii (A. baumannii) BAA747; assay: Antibacterial activity, MIC (Table 4); type: cell-based; settings: A. baumannii BAA747, read-out: MIC, BAA747
# Procedure, shortened: (§3)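 Values are MICs in μg/mL, read as the lowest compound concentration at which no growth is visible by eye. They come from a microbroth dilution method.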
# [8] = system: Klebsiella pneumoniae (K. pneumoniae) 35657; assay: Antibacterial activity, MIC (Table 4); type: cell-based; settings: K. pneumoniae 35657, read-out: MIC, 35657
# Procedure, shortened: as §3
# [9] = system: A. baumannii MXX2240; assay: Antibacterial activity, MIC, resistant strain (Table 4); type: cell-based; settings: Acinetobacter baumannii, MXX2240; resistant A. baumannii MMX2240, multi-drug resistant clinical isolate; read-out: MIC, MMX2240
# Procedure, shortened: as §3
# [10] = system: K. pneumoniae MXX1232; assay: as above; type: cell-based; settings: Klebsiella pneumoniae, MXX1232; resistant K. pneumoniae MMX1232, multi-drug resistant clinical isolate; read-out: MIC, MMX1232
# Procedure, shortened: as §3
# [11] = system: Pseudomonas aeruginosa (P. aeruginosa) 27853; assay: Antibacterial activity, MIC (Table 5); type: cell-based; settings: P. aeruginosa 27853, read-out: MIC, 27853
# Procedure, shortened: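 MIC in μg/mL from broth microdilution; endpoint is the lowest drug level giving no visible growth.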
# [12] = system: Neisseria meningitidis (N. meningitidis) 13090; assay: Antibacterial activity, MIC (Table 8); type: cell-based
# Text: (§4) The antibacterial activity from a microbroth dilution method may be presented as the minimum inhibitory concentration (MIC in μg/mL). The MIC value is the lowest concentration of drug which prevents macroscopically visible growth under test conditions.
# (§5) Antibacterial activity of test compounds against the Gram-negative bacteria Haemophilus influenzae (H. influenzae) 49247 is shown in Table 6, Moraxella catarrhalis (M. catarrhalis) 25238 is shown in Table 7 and Neisseria meningitidis (N. meningitidis) 13090 is shown in Table 8.
# [13] = system: Haemophilus influenzae (H. influenzae) 49247; assay: Antibacterial activity, MIC (Table 6); type: cell-based
# Text: as §4, §5
Compound,MIC [1] [µg/mL],MIC [2] [µg/mL],MIC [3] [µg/mL],MIC [4] [µg/mL],MIC [5] [µg/mL],MIC [6] [µg/mL],MIC [7] [µg/mL],MIC [8] [µg/mL],MIC [9] [µg/mL],MIC [10] [µg/mL],MIC [11] [µg/mL],MIC [12] [µg/mL],MIC [13] [µg/mL]
"Cc1c(-c2ccc3c(c2)cc2n3CC(N)C2)[nH]c(=O)c(C(=O)O)c1O.Cl (stereo not drawn) [Cpd 412, 6-(2-amino-2,3-dihydro-1H-pyrrolo[1,2-a]indol-7-yl)-4-hydroxy-5-methyl-2-oxo-1,2-dihydropyridine-3-carboxylic acid hydrochloride]",1 to 3.5,12.5 to 150,3.5 to 12.5,1 to 3.5,3.5 to 12.5,3.5 to 12.5,12.5 to 150,3.5 to 12.5,12.5 to 150,12.5 to 150,12.5 to 150,1 to 3.5,–
"CCc1cc(C(=O)O)c(=O)[nH]c1-c1ccc2c(c1)OCCN2C [Cpd 3, 5-ethyl-6-(4-methyl-3,4-dihydro-2H-benzo[b][1,4]oxazin-7-yl)-2-oxo-1,2-dihydropyridine-3-carboxylic acid]",< 1,12.5 to 150,1 to 3.5,12.5 to 150,12.5 to 150,12.5 to 150,3.5 to 12.5,3.5 to 12.5,12.5 to 150,12.5 to 150,12.5 to 150,–,< 1
"CCc1cc(C(=O)O)c(=O)[nH]c1-c1ccc2c(ccn2CC)c1 [Cpd 9, 5-ethyl-6-(1-ethyl-1H-indol-5-yl)-2-oxo-1,2-dihydropyridine-3-carboxylic acid]",< 1,12.5 to 150,1 to 3.5,12.5 to 150,12.5 to 150,12.5 to 150,–,–,–,–,–,–,< 1
"CCc1c(-c2ccc3c(c2)OCCN3C)[nH]c(=O)c(C(=O)O)c1O [Cpd 4, 5-ethyl-4-hydroxy-6-(4-methyl-3,4-dihydro-2H-benzo[b][1,4]oxazin-7-yl)-2-oxo-1,2-dihydropyridine-3-carboxylic acid]",< 1,3.5 to 12.5,3.5 to 12.5,3.5 to 12.5,3.5 to 12.5,3.5 to 12.5,1 to 3.5,3.5 to 12.5,1 to 3.5,12.5 to 150,12.5 to 150,–,< 1
"CNC1Cc2cc3cc(-c4[nH]c(=O)c(C(=O)O)c(O)c4C)ccc3n2C1.Cl (stereo not drawn) [Cpd 415, 4-hydroxy-5-methyl-6-(2-(methylamino)-2,3-dihydro-1H-pyrrolo[1,2-a]indol-7-yl)-2-oxo-1,2-dihydropyridine-3-carboxylic acid hydrochloride]",1 to 3.5,12.5 to 150,3.5 to 12.5,< 1,3.5 to 12.5,1 to 3.5,12.5 to 150,3.5 to 12.5,3.5 to 12.5,12.5 to 150,12.5 to 150,1 to 3.5,–
"CCc1cc(C(=O)O)c(=O)[nH]c1-c1ccc2c(c1)cc(CN(C)C)n2C [Cpd 122, 6-(2-((dimethylamino)methyl)-1-methyl-1H-indol-5-yl)-5-ethyl-2-oxo-1,2-dihydropyridine-3-carboxylic acid]",< 1,12.5 to 150,< 1,12.5 to 150,12.5 to 150,12.5 to 150,< 1,< 1,12.5 to 150,12.5 to 150,3.5 to 12.5,< 1,–
"CCc1cc(C(=O)O)c(=O)[nH]c1-c1ccc2c(c1)cc(CN1CC[C@@H](F)C1)n2C [Cpd 129, (R)-5-ethyl-6-(2-((3-fluoropyrrolidin-1-yl)methyl)-1-methyl-1H-indol-5-yl)-2-oxo-1,2-dihydropyridine-3-carboxylic acid]",< 1,3.5 to 12.5,< 1,12.5 to 150,12.5 to 150,12.5 to 150,3.5 to 12.5,1 to 3.5,12.5 to 150,12.5 to 150,12.5 to 150,–,–
